doi:10.1101/2023.02.14.528391v1 (biorxiv, 2023)

biological target: T1, hERG potassium channel (Homo sapiens, UniProt Q12809); test: in vitro; details: not given
T1 sequence (Q12809 whole entry): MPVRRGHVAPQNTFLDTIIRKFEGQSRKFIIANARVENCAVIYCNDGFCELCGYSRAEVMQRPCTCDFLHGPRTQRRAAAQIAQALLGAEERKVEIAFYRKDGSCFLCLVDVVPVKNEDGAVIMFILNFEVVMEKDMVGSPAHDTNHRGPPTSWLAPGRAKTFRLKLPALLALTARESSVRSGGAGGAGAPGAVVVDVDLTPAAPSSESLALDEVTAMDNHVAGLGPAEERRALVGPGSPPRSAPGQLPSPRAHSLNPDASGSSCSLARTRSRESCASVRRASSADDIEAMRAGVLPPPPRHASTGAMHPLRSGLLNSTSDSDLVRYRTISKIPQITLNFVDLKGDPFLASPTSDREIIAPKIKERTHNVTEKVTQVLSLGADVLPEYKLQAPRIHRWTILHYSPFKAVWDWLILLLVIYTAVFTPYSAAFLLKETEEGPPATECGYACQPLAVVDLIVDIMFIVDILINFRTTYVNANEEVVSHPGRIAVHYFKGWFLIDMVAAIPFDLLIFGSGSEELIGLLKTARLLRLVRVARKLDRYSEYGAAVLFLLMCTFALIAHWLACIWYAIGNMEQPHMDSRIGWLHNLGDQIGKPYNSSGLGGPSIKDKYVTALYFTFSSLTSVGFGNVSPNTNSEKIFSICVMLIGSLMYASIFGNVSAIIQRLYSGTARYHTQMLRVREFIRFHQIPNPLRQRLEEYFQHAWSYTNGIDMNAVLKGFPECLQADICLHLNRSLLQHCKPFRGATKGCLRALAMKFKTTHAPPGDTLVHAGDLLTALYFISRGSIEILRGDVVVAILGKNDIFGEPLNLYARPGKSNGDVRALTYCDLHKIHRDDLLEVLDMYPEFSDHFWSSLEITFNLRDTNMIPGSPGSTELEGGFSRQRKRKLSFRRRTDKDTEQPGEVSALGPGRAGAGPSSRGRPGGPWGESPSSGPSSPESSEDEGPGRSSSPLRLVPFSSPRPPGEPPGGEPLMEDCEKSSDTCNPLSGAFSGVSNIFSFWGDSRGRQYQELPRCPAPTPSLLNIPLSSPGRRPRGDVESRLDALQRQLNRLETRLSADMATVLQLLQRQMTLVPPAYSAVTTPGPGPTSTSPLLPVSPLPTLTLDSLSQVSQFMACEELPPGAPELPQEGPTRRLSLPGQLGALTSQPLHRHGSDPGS

Row | Structure (SMILES) | inhibition at 10 µM [%]
1 | CN(C)CCN(Cc1ccccc1F)C(=O)Cc1c[nH]c2nccc(Cl)c12 [s_22____1322108____13142180] | 38.7

same assay, conditions: % inhibition

Row | Structure (SMILES) | inhibition at 10 µM [%]
2 | CN(C)CCCn1nc(-c2ccccc2Cl)c2ccccc2c1=O [GMD_16666] | 10.6
3 | CN(C)CCCn1nc(-c2ccc(F)cc2)c2ccccc2c1=O [s_49____14518112____1114614] | 80.8
4 | CN(C)CCN(Cc1cccc(Cl)c1)C(=O)N1CCSc2ccncc21 [s_272164____9389444____9369516] | 75.9
5 | CN(C)CCN(CCO)Cc1csc(-c2c(Cl)cccc2Cl)n1 [s_2230____15141024____14479640] | 9.6
6 | CN(C)CCN(Cc1ccccc1F)C(=O)c1cccc2ncccc12 [s_527____7348186____237975] | 1.57
7 | CN(C)CCN(Cc1ccccc1)C(=O)N1CCSc2ccncc21 [s_272164____9389444____9363352] | 31.1
8 | COc1c(Cl)cc(C(=O)N(CCN(C)C)C2CCCCC2)c2ncccc12 [s_22____4639446____15428718] | 42.7
9 | CN(CCCN(C)C(=O)c1ccnc2ccsc12)C(=O)c1cncc(Cl)c1 | 2.59
10 | Cc1ccc2cc(C(=O)N(CCN(C)C)Cc3ccccc3F)ccc2n1 [s_527____7348186____7593650] | 21.8
11 | CN(C)CCc1nc2ccccc2n1Cc1ccc(F)c(F)c1 [GMD_9634] | 16.1
12 | CN(C)CCCN(C)Cc1c(-c2ccccc2F)nn(C)c1Cl [s_270004____10205916____16947572] | 17.6
13 | CC1CCCCC1N=c1scc(-c2ccnn2C)n1N=Cc1ccc(Cl)cn1 (centres unmarked) [s_1____86334____13026574____11759950] | -2.58
14 | CN(C)CCN(Cc1nccn1C)C(=O)c1ccn(-c2ccccc2Cl)n1 [s_22____16636986____2366818] | 25.8
15 | Cc1ccc(-c2nn(CN(C)CCC3CCOCC3)c(=O)c3ccccc23)cc1 [m_26____7043632____590162] | 7.12
16 | CN(C)CCn1nc(-c2ccccn2)c2ccccc2c1=O [GMD_13601] | 16.6
17 | CN(C)CCc1nc2ccccc2n1Cc1ccccc1Cl [GMD_7286] | 51.3
18 | COc1cc(C(=O)N(CCN(C)C)c2ccccc2)c2ncccc2c1 [s_11____2264406____15769708] | 22.5
19 | CC(=Cc1ccccn1)C(=O)N(CCN(C)C)c1ccccc1 [s_11____2264406____11762612] | 18.8
20 | CN(C)CCC(Sc1nccn1Cc1ccccn1)c1ccccc1 (centres unmarked) [s_7____4839872____13940010] | 5.79
21 | Cc1csc2ccnc(N3CCOCC4(COCCN4Cc4ccccc4)C3)c12 (centres unmarked) [s_27____15756872____16607386] | 62.1
22 | CN(C)CCN(Cc1ccccc1)C(=O)c1ncccc1Cl [s_11____117338____10437082] | 9.12
23 | CN(C)CCn1nc(-c2ccncc2)c2ccccc2c1=O [NBI1099472] | 15
24 | CN(C)CCN(Cc1ccccc1F)C(=O)c1c(Cl)ccc2cccnc12 [s_527____7348186____16891240] | 59.1
25 | CN(C)CCc1nc2ccccc2n1Cc1ccc(F)cc1 [GMD_9161] | 6.04
26 | CN(C)CCN(Cc1ccsc1)C(=O)c1cc2c(Cl)cncc2s1 [s_11____10910498____13033826] | 79.5

Row | Structure (SMILES) | inhibition at 10 µM [%]
27 | Cc1cc2nc(Cl)nc(N(CCN(C)C)Cc3nccn3C)c2s1 [s_27____16636988____12112620] | 71.2
28 | CN(C)CCOc1ccccc1-c1cn(C)c2cccnc12 [s_271570____11676396____16733458] | 63.8
29 | CN(C)CCCn1nc(-c2ccncc2)c2ccccc2c1=O [NBI1099478] | 23.4
30 | CN(C)CCn1nc(-c2ccccc2)c2ccccc2c1=O [GMD_24043] | 60.1
31 | CN(C)CCN(Cc1ccccc1F)C(=O)N1CCSc2ncccc21 [s_272164____9389146____17325014] | 37.3
32 | CN(C)CCN(Cc1ccccc1)Cc1c(Cl)cccc1-n1ccnc1 [s_270004____10205888____17057166] | 71.1
33 | CN(C)CCN(CCCc1ccccc1)C(=O)c1cn(C)c2ccccc12 [s_22____2161756____115777] | 63.8
34 | CN(C)CCN(Cc1nccn1C)c1nc2cc(Cl)ccc2s1 [s_27____16636988____14057938] | 89.1
35 | CN(C)CCN(Cc1ccccc1F)C(=O)c1cccc2cccnc12 [s_11____4836284____101939] | 55
36 | CN(C)CCCN(Cc1ccc(Cl)c(Cl)c1)C(=O)c1nccc2ncccc12 [s_527____1500312____14775532] | 40
37 | CN(C)CCCN(Cc1ccc(Cl)c(Cl)c1)C(=O)c1nccnc1Cl [s_22____1500308____12360522] | 57.7
38 | Cc1cccc2c(C(=O)N(CCN(C)C)c3ccccn3)cnn12 [s_11____17828754____16474570] | 20.8
39 | CN(C)CCCn1nc(-c2cccs2)c2ccccc2c1=O [s_49____14518112____101877] | 81.7
40 | CN(C)CCN(Cc1nccn1C)c1cc(C(F)F)nc2ccc(Cl)cc12 [s_27____16636988____10213920] | 61
41 | CN(C)CCN(C(=O)c1cccc2ncccc12)c1ccccc1 [s_11____2264406____15260550] | 21.8
42 | CN(C)CCCN(Cc1ccc(Cl)c(Cl)c1)C(=O)c1ccn2c1CSCC2 [s_527____1500312____16910956] | 66.8
43 | CN(CCN(C)C(=O)c1cccnc1N(C)C)Cc1cccc(Cl)c1 | 17.1
44 | CN(C)CCN(Cc1nccn1C)c1nc(-c2ccccn2)nc2sccc12 [s_27____16636988____12321872] | 91.6
45 | CN(C)c1ncccc1CN1CCN(C(=O)c2c(Cl)cccc2Cl)CC1 [s_270004____8133704____10229386] | 2.59
46 | CN(C)CCN(CCc1ccccc1)C(=O)c1csc2cc(Cl)cnc12 [s_11____764634____11618976] | 88.2
47 | CN(C)CCN(Cc1cccc(F)c1)C(=O)CSc1nc2ccccc2n1C [s_22____2224108____339636] | 75.6
48 | CN(C)CCC(Sc1ccncc1F)c1ccccc1 (centres unmarked) [s_7____14325654____13940010] | 47.3
49 | Cc1ccc(C(=O)N(CCN(C)C)Cc2ccccc2)c2ncccc12 [s_527____284286____13308974] | 69.2
50 | Clc1ccccc1-n1ccc(CNC2(c3ncccn3)CCOCC2)n1 [s_2230____13270592____17316260] | -0.942
51 | CN(C)CCN(Cc1cccc(OCc2ccc(F)cc2)c1)Cc1nccn1C [s_270004____16637008____8127840] | 91.3

Row | Structure (SMILES) | inhibition at 10 µM [%]
52 | CN(C)CCn1nc(-c2cccs2)c2ccccc2c1=O [NBI1099533] | 9.92
53 | CN(C)CCN(Cc1ccc(F)c(F)c1)C(=O)c1ccnc(Cl)c1Cl [s_22____2224104____12421166] | 23.5
54 | CN(C)CCCSc1nnc(-c2cnccn2)n1-c1ccc(Cl)cc1 [s_7____7285292____9475634] | 32.1
55 | COCCN(CCN(C)C)C(=O)c1cccnc1Oc1ccc(Cl)cc1Cl [s_22____3489604____2009120] | 48.6
56 | Cc1cccc(CN(CCN(C)C)C(=O)C2=Cc3ccc(Cl)cc3OC2)c1 [s_22____3218898____13770932] | 94.3
57 | CN(C)CCCN(Cc1ccc(Cl)c(Cl)c1)c1cnc2ccccc2n1 [s_27____7425384____262944] | 93.6
58 | CN(C)CCN(Cc1ccc(F)cc1F)C(=O)c1cc(Br)ncc1Cl [s_11____4836304____10207328] | 28.7
59 | CN(C)CCN(Cc1cccs1)Cc1cc2cnn(C)c2nc1Cl [s_270004____10206112____16971162] | 78.3
60 | CSc1ncccc1-c1nn(CCN(C)C)c(=O)c2ccccc12 [NBI1100648] | 44.2
61 | CN(C)CCn1nc(-c2cncc(Cl)c2)c2ccccc2c1=O [NBI1099473] | 86.1
62 | CN(Cc1sccc1Cl)C[C@H]1CCCCN1C(=O)c1ncccc1F | 27.4
63 | CN(C)CCN(Cc1ccccc1F)C(=O)c1nccc2ncccc12 [s_527____7348186____14775532] | 33.1
64 | CN(C)CCN(Cc1ccccc1)c1nc2cccc(F)c2s1 [s_27____7100858____10689034] | 83
65 | CC(=Cc1ccccc1Cl)C(=O)N(CCN(C)C)c1ccccn1 [s_11____17828754____7832710] | 48.4
66 | Cc1ccc2c(C(=O)N(CCN(C)C)c3ccccn3)ccnc2c1Cl [s_11____17828754____14179334] | 29.9
67 | CN(C)CCN(Cc1ccccc1)C(=O)c1cc(-c2ccccn2)ccc1Cl [s_527____284286____7794996] | 55
68 | CN(C)CCn1nc(-c2cccnc2)c2ccccc2c1=O [GMD_36918] | 2.87
69 | COCCN(CCN(C)C)Cc1c(Cl)cccc1Oc1ccccc1 [s_270004____10206068____8363900] | 99
70 | Clc1ccccc1N(CCN1CCOCC1)Cc1cc2ncccc2s1 [s_2230____12297302____16648172] | 66
71 | Cc1cccc2c(C(=O)N(CCN(C)C)Cc3ccccc3F)nccc12 [s_527____7348186____14188826] | 52.7
72 | CN(C)CCN(Cc1ccccc1F)c1ncc(Cl)cc1Cl [s_27____7100864____12221638] | 86.4
73 | CN(C)CCc1nc2ccccc2n1CCc1ccccc1 [GMD_12737] | 45.4
74 | Cc1ccccc1Cn1c(CCN(C)C)nc2ccccc21 [GMD_8492] | 9.23

biological target: T1, hERG potassium channel; test: biochemical; details: hERG / IC50 (nM), Synthesis=Enamine

Row | Structure (SMILES) | IC50 [nM]
75 | CN(C)CCCn1nc(-c2ccc(F)cc2)c2ccccc2c1=O [s_49____14518112____1114614] | 2100
76 | CN(C)CCCn1nc(-c2cccs2)c2ccccc2c1=O [s_49____14518112____101877] | 1340
77 | CN(C)CCN(Cc1ccccc1)c1nc2cccc(F)c2s1 [s_27____7100858____10689034] | 2240
78 | CN(C)CCCn1nc(-c2ccc(Cl)cc2)c2ccccc2c1=O [s_49____14518112____88929] | 909

same assay, conditions: hERG / IC50 (nM), Synthesis=NBI

Row | Structure (SMILES) | IC50 [nM]
79 | CN(C)CCCn1nc(-c2cccs2)c2ccccc2c1=O [GMD_12264] | 1890

biological target: T1, hERG potassium channel; test: biochemical; details: hERG / Ki (nM), Synthesis=NBI

Row | Structure (SMILES) | Ki [nM]
80 | CN(C)CCCn1nc(-c2cccs2)c2ccccc2c1=O [GMD_12264] | 1340
